Test results from patent publication US11214803B2, “Modulators of YAP1 expression” (Ionis Pharmaceuticals, Inc., priority 2019, dated 2022).
Strand notation (5' to 3'): a small letter for the sugar, then the base; units joined by * are phosphorothioate-linked, units joined directly phosphodiester-linked; [ ] holds rarer units or linkages, { } end groups; capitals alone tell only the bases. k = constrained ethyl (cEt); [5mC] = 5-methylcytosine; d = 2'-deoxy (DNA)

tested on: Yap1 mRNA; test: Antisense inhibition of human Yap1 in A-431 cells by cEt gapmers, single dose (Example 2, RTS4814); type: cell-based; details: A-431 cells, 5,000 cells per well, free uptake, 2,000 nM modified oligonucleotide, approx. 48 hours, RTS4814, normalized to RIBOGREEN; Table 4; asterisk (*) = targets amplicon region of primer probe set
In short: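 Yap1 mRNA levels, by real-time RT-PCR (RTS4814) and corrected for total RNA via RIBOGREEN, are given as percent of untreated cells. Gapmers (16-mer, cEt wings, phosphorothioate, 5-methylC) were delivered without transfection at 2,000 nM to A-431 cells for about 48 hours.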

Substance | YAP1 (% UTC)
716412 (kG*kT*kA*dG*dT*d[5mC]*dT*dG*dG*dG*dA*dA*dA*k[5mC]*kG*kG; antisense) [Compound 716412] | 41 % UTC
716394 (kG*kT*kT*dG*d[5mC]*dT*dG*d[5mC]*dA*dG*dT*d[5mC]*dG*k[5mC]*kA*kT; antisense) [Compound 716394] | 120 % UTC
716526 (antisense kT*k[5mC]*kA*dA*dA*dG*d[5mC]*dA*d[5mC]*dT*dG*dT*dG*k[5mC]*k[5mC]*kA) [Compound 716526] | 88 % UTC
716403 (k[5mC]*k[5mC]*kG*dG*dG*dA*dG*dA*dA*dG*dA*d[5mC]*dA*k[5mC]*kT*kG; antisense) [Compound 716403] | 110 % UTC
716445 (kG*kT*kA*dT*dG*dT*dG*dG*d[5mC]*dA*dA*dT*dA*kA*kT*kT; antisense) [Compound 716445] | 28 % UTC

same assay, conditions: Table 5; A-431 cells, 5,000 cells per well, free uptake, 2,000 nM modified oligonucleotide, approx. 48 hours; RTS4814; normalized to RIBOGREEN; Yap1 mRNA relative to untreated control cells

Substance | YAP1 (% UTC)
716419 (kT*kT*kT*d[5mC]*d[5mC]*dG*dG*dT*dG*d[5mC]*dA*dT*dG*kT*kG*kT; antisense) [Compound 716419] | 36 % UTC
716389 (kA*kG*k[5mC]*d[5mC]*dT*dT*dG*dG*dG*dT*d[5mC]*dT*dA*kG*k[5mC]*k[5mC]; antisense) [Compound 716389] | 93 % UTC
716500 (kA*kA*k[5mC]*dT*dT*d[5mC]*dT*dT*dA*d[5mC]*dT*dT*d[5mC]*k[5mC]*kA*kA; antisense) [Compound 716500] | 18 % UTC

same assay, conditions: Table 6; A-431 cells, 5,000 cells per well, free uptake, 2,000 nM modified oligonucleotide, approx. 48 hours; RTS4814; normalized to RIBOGREEN; Yap1 mRNA relative to untreated control cells

Substance | YAP1 (% UTC)
716459 (k[5mC]*kG*k[5mC]*dT*dA*d[5mC]*d[5mC]*dA*dT*dT*dT*dT*dA*kA*kA*kA; antisense) [Compound 716459] | 121 % UTC

same assay, conditions: Table 18; A-431 cells, 5,000 cells per well, free uptake, 2,000 nM modified oligonucleotide, approx. 48 hours; RTS4814; normalized to RIBOGREEN; Yap1 mRNA as percent of untreated control

Substance | YAP1 (% UTC)
1075204 (antisense kG*kT*kT*dA*dA*dA*d[5mC]*dA*d[5mC]*dA*dT*d[5mC]*dT*k[5mC]*kA*kG) [Compound 1075204] | 43 % UTC
1075460 (antisense kA*kA*kT*dA*dA*d[5mC]*d[5mC]*dA*dA*dG*dG*dA*dT*kA*kG*kT) [Compound 1075460] | 30 % UTC
1075812 (k[5mC]*kA*kT*dT*dA*dA*dG*dA*dT*dT*dT*dT*dA*kA*k[5mC]*k[5mC]; antisense) [Compound 1075812] | 103 % UTC
1074180 (antisense k[5mC]*k[5mC]*kG*dG*dG*dA*dT*d[5mC]*d[5mC]*dA*dT*dG*dG*k[5mC]*kT*kT) [Compound 1074180] | 86 % UTC
1074980 (antisense kT*kA*kT*dT*dG*d[5mC]*d[5mC]*dA*dG*dT*dT*d[5mC]*dT*kT*kG*kT) [Compound 1074980] | 26 % UTC

same assay, conditions: Table 19; A-431 cells, 5,000 cells per well, free uptake, 2,000 nM modified oligonucleotide, approx. 48 hours; RTS4814; normalized to RIBOGREEN; Yap1 mRNA as percent of untreated control

Substance | YAP1 (% UTC)
1074725 (antisense kG*kT*kA*dT*dA*dA*d[5mC]*dT*dG*dG*dG*d[5mC]*dA*kA*kA*kT) [Compound 1074725] | 17 % UTC
1075461 (antisense k[5mC]*kT*kA*dA*dA*dT*dA*dA*d[5mC]*d[5mC]*dA*dA*dG*kG*kA*kT) [Compound 1075461] | 64 % UTC
1075013 (antisense k[5mC]*kA*kT*dA*dA*dA*d[5mC]*d[5mC]*d[5mC]*dA*d[5mC]*dT*dT*k[5mC]*kG*kA) [Compound 1075013] | 102 % UTC
1076293 (kG*k[5mC]*kT*dT*dA*dT*dT*dA*dT*dT*dG*dA*dG*kT*kT*kA; antisense) [Compound 1076293] | 3 % UTC
1076357 (kT*k[5mC]*k[5mC]*dA*dA*dA*dA*dA*d[5mC]*dT*dT*d[5mC]*dT*kT*kA*kG; antisense) [Compound 1076357] | 22 % UTC
1075973 (k[5mC]*k[5mC]*kG*d[5mC]*dA*dA*d[5mC]*dA*d[5mC]*d[5mC]*dA*dT*dT*k[5mC]*kT*kT; antisense) [Compound 1075973] | 8 % UTC

same assay, conditions: Table 20; Yap1 mRNA, percent of untreated control; 3-10-3 cEt gapmers targeting SEQ ID NO.: 1 and 2

Substance | YAP1 (% UTC)
1074406 (antisense kA*kA*kA*dG*dT*dA*dT*d[5mC]*dT*dT*dG*d[5mC]*dT*kG*kG*kA) [Compound 1074406] | 16 % UTC

same assay, conditions: Table 21; Yap1 mRNA, percent of untreated control; 3-10-3 cEt gapmers targeting SEQ ID NO.: 1 and 2

Substance | YAP1 (% UTC)
1076007 (k[5mC]*kA*kT*dT*dA*dG*dG*d[5mC]*d[5mC]*dT*dT*dT*dT*kA*k[5mC]*kT; antisense) [Compound 1076007] | 27 % UTC
1075879 (kG*kA*kA*dT*dA*dA*dA*dG*dA*dA*dG*dT*d[5mC]*kA*k[5mC]*k[5mC]; antisense) [Compound 1075879] | 77 % UTC
1075015 (antisense k[5mC]*kA*kG*dA*dA*dT*dA*dA*dG*dT*dA*dT*dG*kA*kT*kT) [Compound 1075015] | 55 % UTC
1075143 (antisense k[5mC]*k[5mC]*kT*dT*dA*dT*dT*dA*dG*dT*d[5mC]*dA*dG*kT*kT*k[5mC]) [Compound 1075143] | 2 % UTC
1074375 (antisense kG*k[5mC]*kA*dG*dG*dG*dT*dG*d[5mC]*dT*dT*dT*dG*kG*kT*kT) [Compound 1074375] | 33 % UTC
1075271 (antisense kG*kA*kT*dG*dT*dG*dA*dT*d[5mC]*dT*dG*dT*dG*kA*kG*kA) [Compound 1075271] | 11 % UTC

same assay, conditions: Table 22; Yap1 mRNA as percent of untreated control; 3-10-3 cEt gapmers; single dose

Substance | YAP1 (% UTC)
1076072 (k[5mC]*kA*k[5mC]*dA*dA*dA*dA*dA*d[5mC]*dT*dG*dG*dT*k[5mC]*kT*kG; antisense) [Compound 1076072] | 18 % UTC
1074824 (k[5mC]*k[5mC]*kT*dG*dA*dG*d[5mC]*dA*d[5mC]*dT*d[5mC]*dA*dT*kT*kT*k[5mC]; antisense) [Compound 1074824] | 53 % UTC

same assay, conditions: Table 23; Yap1 mRNA as percent of untreated control; 3-10-3 cEt gapmers; single dose

Substance | YAP1 (% UTC)
1074761 (kT*kA*k[5mC]*d[5mC]*d[5mC]*dA*dA*dT*dA*d[5mC]*dA*dA*d[5mC]*k[5mC]*kA*kA; antisense) [Compound 1074761] | 15 % UTC
1075305 (kA*kA*kA*d[5mC]*dG*dA*dA*dA*d[5mC]*dA*d[5mC]*dG*dG*kG*kT*kA; antisense) [Compound 1075305] | 66 % UTC

same assay, conditions: Table 25; Yap1 mRNA as percent of untreated control; 3-10-3 cEt gapmers targeting SEQ ID NO.: 1, and 2

Substance | YAP1 (% UTC)
1074699 (antisense k[5mC]*kT*kA*dT*d[5mC]*dA*dA*dG*dG*dT*d[5mC]*d[5mC]*d[5mC]*k[5mC]*k[5mC]*kT) [Compound 1074699] | 27 % UTC
1074379 (antisense kT*kG*kG*dG*dA*dA*dA*d[5mC]*dG*dG*dT*dT*d[5mC]*kT*kG*k[5mC]) [Compound 1074379] | 20 % UTC
1075659 (kA*kA*kG*dT*dA*dA*dA*dA*dA*dA*d[5mC]*dG*dG*kT*kT*kT; antisense) [Compound 1075659] | 125 % UTC
1075403 (antisense k[5mC]*kT*kT*dA*dA*dT*d[5mC]*dA*dG*dG*dT*dA*d[5mC]*kT*kA*kT) [Compound 1075403] | 18 % UTC

same assay, conditions: Table 32; Yap1 mRNA, percent of untreated control; 3-10-3 cEt gapmers targeting SEQ ID NO.: 1, and 2

Substance | YAP1 (% UTC)
1075218 (k[5mC]*kT*kT*dA*dA*d[5mC]*dA*d[5mC]*dT*dG*dG*dT*dA*kA*kG*kA; antisense) [compound 1075218] | 97 % UTC
1074194 (antisense k[5mC]*k[5mC]*kG*dG*dG*dT*d[5mC]*d[5mC]*dG*dG*dA*d[5mC]*dG*kG*k[5mC]*kG) [compound 1074194] | 57 % UTC

same assay, conditions: Table 33; Yap1 mRNA, percent of untreated control; 3-10-3 cEt gapmers targeting SEQ ID NO.: 1, and 2

Substance | YAP1 (% UTC)
1075539 (k[5mC]*kT*kT*dA*dA*dG*dG*dG*dA*dT*dG*dG*dA*kA*k[5mC]*kA; antisense) [compound 1075539] | 79 % UTC
1075475 (kT*kA*kG*d[5mC]*dA*dA*d[5mC]*dA*d[5mC]*dA*dT*dG*dA*kA*kG*kA; antisense) [compound 1075475] | 64 % UTC
1076563 (k[5mC]*kA*kA*dA*dG*dT*dA*dA*dT*dT*dA*dA*dA*k[5mC]*kG*kA; antisense) [compound 1076563] | 91 % UTC

same assay, conditions: Yap1 mRNA as percent of untreated control; A-431 cells; 3-10-3 cEt gapmers targeting SEQ ID NO.: 1, and 2; Table 30

Substance | YAP1 (% UTC)
1075312 (antisense kT*kT*kA*dA*dT*dT*dG*dA*dA*d[5mC]*dT*d[5mC]*dA*kG*kG*kG) [compound 1075312] | 37 % UTC

same assay, conditions: Yap1 mRNA as percent of untreated control; A-431 cells; 3-10-3 cEt gapmers targeting SEQ ID NO.: 1, and 2; Table 31

Substance | YAP1 (% UTC)
1075921 (antisense kG*kA*kA*dA*dG*dA*dA*dA*dG*d[5mC]*dT*dG*d[5mC]*kG*k[5mC]*kA) [compound 1075921] | 93 % UTC
1074193 (antisense kG*kG*kT*d[5mC]*d[5mC]*dG*dG*dA*d[5mC]*dG*dG*d[5mC]*dG*kG*kG*k[5mC]) [compound 1074193] | 74 % UTC
1074225 (antisense k[5mC]*k[5mC]*kA*dG*dA*dG*dA*d[5mC]*dT*dA*d[5mC]*dT*d[5mC]*k[5mC]*kA*kG) [compound 1074225] | 11 % UTC
1075313 (antisense k[5mC]*kT*kT*dA*dA*dT*dT*dG*dA*dA*d[5mC]*dT*d[5mC]*kA*kG*kG) [compound 1075313] | 28 % UTC
